Assay results as given in patent US20220178927A1, “BIOMARKERS FOR SELINEXOR” (Karyopharm Therapeutics Inc., priority 2019, published 2022).

Legend:
[1] = tested on: bortezomib-refractory disease; conditions: cited from earlier work
[2] = tested on: MM refractory to either 4 or 5 drugs (quad- and penta-refractory); experiment: phase 2 STORM study Part 1; assay type: in vivo, human; conditions: Selinexor 80 mg in combination with dexamethasone 20 mg, 2 dosing schedules; quad- and penta-refractory MM patients
Procedure: Selinexor 80 mg in combination with dexamethasone 20 mg administered using 2 dosing schedules was studied in patients with MM refractory to either 4 or 5 drugs (quad- and penta-refractory) in Part 1 of the phase 2 STORM (Selinexor Treatment Of Refractory Myeloma) study. Median overall response rate (ORR) was 21% in this heterogeneous population. Based on these findings, the activity of selinexor 80 mg administered twice-weekly was examined in a more uniform population in the pivotal STORM Part 2 study.

[3] = tested on: penta-exposed, triple-class refractory MM; experiment: pivotal STORM Part 2 study; assay type: in vivo
From the text: Eligible patients had measurable MM by International Myeloma Working Group (IMWG) criteria (See, Durie B G, Harousseau J L, Miguel J S, et al. International uniform response criteria for multiple myeloma. Leukemia 2006;20:1467-73. Rajkumar S V, Harousseau J L, Durie B, et al. Consensus recommendations for the uniform reporting of clinical trials: report of the International Myeloma Workshop Consensus Panel. Blood 2011;117:4691-5); prior treatment with bortezomib, carfilzomib, lenalidomide, pomalidomide, daratumumab, glucocorticoids, and an alkylating agent; and had disease refractory to at least 1 IMiD (lenalidomide and pomalidomide), 1 PI (bortezomib or carfilzomib), daratumumab, glucocorticoids and to their last regimen. Refractory disease was defined as progression during or within 60 days after completion of therapy, or <25% response to therapy.19, 20 Eastern Cooperative Oncology Group performance status of 0-2, adequate hepatic function, renal function, and hematopoietic function were required. Systemic light chain amyloidosis, active central nervous system involvement, grade≥3 peripheral or grade≥2 painful neuropathy were exclusion criteria.
Oral selinexor 80 mg in combination with dexamethasone 20 mg was administered on days 1 and 3, weekly, in 4-week cycles until disease progression, death or discontinuation. A dose modification protocol was used for adverse event (AE) management. All patients were required to receive ondansetron 8 mg (or equivalent) prior to the first dose of study drug and 2-3 times daily as needed. Other antiemetics (olanzapine, NK-1R antagonists) were permitted for patients intolerant to or with persistent nausea. Supportive measures were provided at the discretion of the investigator and may have included intravenous fluids, hematopoietic growth factors, transfusions, and/or appetite stimulants (olanzapine, megesterol acetate).
The primary endpoint was Overall Response Rate (ORR) adjudicated by the appointed Independent Review Committee (IRC). Secondary endpoints included duration of response (DOR), clinical benefit rate (CBR), progression-free survival (PFS) and OS (Overall Survival). Disease-specific assessments were conducted at baseline, day 1 of each treatment cycle, and at the time of disease progression or suspected response. High-risk cytogenetics included del(17p), t(4;14), t(14;16), and gain(1q) chromosomal abnormalities by fluorescent in situ hybridization (FISH). Quality of life was assessed using the Functional Assessment of Cancer Therapy-Multiple Myeloma (FACT-MM) patient-reported outcome questionnaire. Safety and tolerability were assessed through history, physical exam, laboratory assessments and 12-lead electrocardiogram. Adverse events (AEs) were graded according to the NCI CTCAE v4.03.
The sample size was based on assumptions for penta-exposed, triple-class-refractory MM using a minimal threshold for ORR of 10%. For the primary efficacy analysis, a sample size of 122 patients allowed for a one-sided test at α=0.025 to detect an ORR of ≥20% against the threshold ORR of 10% with 90% power. The modified intention-to-treat (mITT) population was used for the primary efficacy analysis, comprised of all enrolled patients who met all eligibility criteria or received a waiver from the Sponsor to enroll in the trial and received at least 1 dose of selinexor plus dexamethasone. The safety population included all patients who received at least 1 dose of study drug. The primary analysis used a 2-sided, exact 95% confidence interval, calculated for the ORR among the mITT population, with statistical significance declared if the lower bound of this interval was >10%. […] Summary statistics for continuous variables minimally included: n (number), mean, standard deviation (SD), minimum, median, and maximum. For categorical variables, frequencies and percentages are presented. For time-to-event variables, the Kaplan-Meier method was used for descriptive summaries.

quad-refractory myeloma = conditions: pivotal phase 2 study; cited from earlier work
refractory MM = conditions: expansion cohort (n=15) of the phase 1 monotherapy study; cited from earlier work
[4] = selinexor 80 mg + dexamethasone 20 mg twice weekly
[5] = selinexor 80 mg + dexamethasone 20 mg twice weekly, % of mITT patients
[6] = selinexor 80 mg + dexamethasone 20 mg twice weekly, % of patients

CC(C)C[C@H](NC(=O)[C@H](CCc1ccccc1)NC(=O)CN1CCOCC1)C(=O)N[C@@H](Cc1ccccc1)C(=O)N[C@@H](CC(C)C)C(=O)[C@@]1(C)CO1 [carfilzomib]
ORR [1]: 18.9%

O=C(/C=C\n1cnc(-c2cc(C(F)(F)F)cc(C(F)(F)F)c2)n1)NNc1cnccn1 [selinexor, Selinexor]
Overall response rate (ORR) [2]: 21%
discontinuation because of AEs (unrelated and related) ([3]; most common reasons for discontinuation): 32.5%
Overall response rate (ORR) ([3]; oral selinexor 80 mg + dexamethasone 20 mg, days 1 and 3 weekly, mITT population (122 patients), IRC adjudicated): 26.2%
CBR (≥minimal response), clinical benefit rate [3, 4]: 39.3%
OS (Overall Survival) [3, 4]: 8.6 months
PFS (progression-free survival) [3, 4]: 3.7 months
median DOR (duration of response) [3, 4]: 4.4 months
partial responses [3, 5]: 19.7%
stringent complete responses [3, 5]: 1.6%
very good partial responses [3, 5]: 4.9%
Minimal response [3, 6]: 13.1%
progressive disease or disease not evaluable [3, 6]: 21.3%
stable disease [3, 6]: 39.3%
response of patients with relapse after CAR-T ([3]; selinexor 80 mg + dexamethasone 20 mg twice weekly, both (2) patients with prior CAR-T therapy): partial response
Median time to partial response or better ([3]; selinexor 80 mg + dexamethasone 20 mg twice weekly, range 1-14 weeks): 4.1 weeks
median OS in patients who achieved a partial or minimal response or better ([3]; selinexor 80 mg + dexamethasone 20 mg twice weekly, responder subgroup): 15.6 months
efficacy across subgroups ([3]; subgroups including patients with high-risk cytogenetics (53% of the patients)): consistent across subgroups

daratumumab
ORR (quad-refractory myeloma): 21.2%
ORR (refractory MM): 36%
